This experiment addresses Hsp27c (Homo sapiens, UniProt P04792). In words: STD-NMR binding experiment. Particulars: Figure S2.

Chain of Hsp27c (P04792 79-176): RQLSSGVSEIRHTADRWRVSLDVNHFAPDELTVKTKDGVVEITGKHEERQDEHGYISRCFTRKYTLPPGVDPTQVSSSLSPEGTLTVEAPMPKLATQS

For the molecule `Nc1cccnc1Oc1ccc(F)cc1F` [Compound 4, 2-(2,4-difluorophenoxy)pyridin-3-amine], the “binding to Hsp27c in STD-NMR” value is “bound”.

The values above are taken from PMC7968374 (Bioorganic & medicinal chemistry, 2021).
